Earlier results on one compound are cited in patent US12171766B2, “Methods of treating patients suffering from brain injury and methods of increasing the value of the extended Glasgow Outcome Scale of patients suffering from brain injury” (VERINOS OPERATIONS GMBH, priority 2021, dated 2024).

The data set relates to animal models of TBI. The settings on record: mice, Terpolilli et al. 2009; cited from earlier work.

For `CC(O)C(O)C1CNc2nc(N)nc(N)c2N1` [Ronopterin, 4-Amino-(6R,S)-5,6,7,8-tetrahydro-L-biopterin], the “effect in animal models of TBI” value is recorded as “beneficial”.
